{"source": "patent US9469617B2", "about": "“Molecules having certain pesticidal utilities, and intermediates, compositions, and processes related thereto” (priority 2014, dated 2016)", "type_in_all_cases": "in vivo", "key": {"[1]": {"test_system": "Cabbage Looper (CL) (Trichoplusia ni)", "experiment": "Bioassay on Cabbage Looper (CL), 128-well diet tray assay", "settings": "168 h, Table ABC, 50 μg/cm^2 on artificial diet, second instar larvae, five to seven days, 25° C., read-out: CL % Control (or Mortality) rating", "in_short": "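Second-instar larvae (one to five per well) placed on artificial diet treated with 50 μg/cm^2 compound in 90:10 acetone-water, dried, eight wells per compound. Held at 25 °C, 14:10 light-dark for five to seven days; percent mortality per well, averaged over the eight wells.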"}, "[2]": {"test_system": "Beet Armyworm (BAW) (Spodoptera exigua)", "experiment": "Bioassay on Beet Armyworm (BAW), 128-well diet tray assay", "settings": "168 h, Table ABC, 50 μg/cm^2 on artificial diet, second instar larvae, five to seven days, 25° C., read-out: BAW % Control (or Mortality) rating", "in_short": "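Artificial diet was surface-treated with 50 μg/cm^2 compound in 90:10 acetone-water and dried, then infested with one to five second-instar larvae per well. Trays were held 5–7 days at 25° C, 14:10 light-dark. Percent mortality was averaged over eight wells.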"}, "[3]": {"test_system": "Yellow Fever Mosquito (YFM) (Aedes aegypti)", "experiment": "Bioassay on Yellow Fever Mosquito (YFM) larvae, 96-well plate", "settings": "Table ABC; about 1 day-old larvae, master plate 4000 ppm in DMSO diluted, scored on mortality after 3 days", "in_short": "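Compounds from 4000 ppm DMSO master solutions, diluted in 90:10 water:acetone, dispensed into wells and infested with about 1-day-old larvae in liver-powder water. Held covered at room temperature for 3 days, then each well scored for mortality; 6 replicate plates per master.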"}, "[4]": {"test_system": "Green Peach Aphid (GPA) (Myzus persicae)", "experiment": "Bioassay on Green Peach Aphid (GPA), foliar spray on cabbage seedlings", "settings": "72 h, Table ABC, 200 ppm foliar spray on cabbage seedlings, graded after three days, Abbott corrected % control, read-out: GPA % Control (or Mortality) rating", "method": "Certain molecules disclosed in this document were tested against GPA using procedures described in the following example. In the reporting of the results, the “GPA & YFM Rating Table” was used (See Table Section).\nCabbage seedlings grown in 3-inch pots, with 2-3 small (3-5 cm) true leaves, were used as test substrate. The seedlings were infested with 20-50 GPA (wingless adult and nymph stages) one day prior to chemical application. Four pots with individual seedlings were used for each treatment. Test compounds (2 mg) were dissolved in 2 mL of acetone/MeOH (1:1) solvent, forming stock solutions of 1000 ppm test compound. The stock solutions were diluted 5× with 0.025% Tween 20 in water to obtain the solution at 200 ppm test compound. A hand-held aspirator-type sprayer was used for spraying a solution to both sides of […] leaves until runoff. Reference plants (solvent check) were sprayed with the diluent only containing 20% by volume of acetone/MeOH (1:1) solvent. Treated plants were held in a holding room for three days at approximately 25° C. and ambient relative humidity (RH) prior to grading. Evaluation was conducted by counting the number of live aphids per plant under a microscope. Percent Control was measured by using Abbott's correction formula (W. S. Abbott, “A Method of Computing the Effectiveness of an Insecticide” J. Econ. Entomol. 18 (1925), pp. 265-267) as follows. Corrected % Control=100*(X−Y)/X where X=No. of live aphids on solvent check plants and Y=No. of live aphids on treated plants. The results are indicated in the table entitled “Table ABC: Assay Results” and “Table ABCD: Assay Results” (See Table Section)."}}, "data": [{"smiles": "CCc1ccccc1N1C(=O)CS/C1=N\\C(=O)NC1Cc2ccc(-c3ncn(-c4ccc(OC(F)(F)F)cc4)n3)cc2C1", "note": "(stereo not drawn) [F12, (Z)-1-(3-(2-Ethylphenyl)-4-oxothiazolidin-2-ylidene)-3-(5-(1-(4-(trifluoromethoxy)phenyl)-1H-1,2,4-triazol-3-yl)-2,3-dihydro-1H-inden-2-yl)urea]", "values": [{"measurement": "mortality at 50 µg/cm2", "setting": "[1]", "value": "50 to 100", "unit": "%"}, {"measurement": "mortality at 50 µg/cm2", "setting": "[2]", "value": "50 to 100", "unit": "%"}, {"measurement": "YFM % Control (or Mortality) rating", "setting": "[3]", "value": "A (80-100)"}, {"measurement": "mortality at 200 ppm", "setting": "[4]", "value": 0, "unit": "%"}]}, {"smiles": "O=C(/N=C1\\SCC(=O)N1c1ccccc1C1CC1)NC1Cc2ccc(-c3ncn(-c4ccc(OC(F)(F)F)cc4)n3)cc2C1", "note": "(stereo not drawn) [F15, (Z)-1-(3-(2-Cyclopropylphenyl)-4-oxothiazolidin-2-ylidene)-3-(5-(1-(4-(trifluoromethoxy)phenyl)-1H-1,2,4-triazol-3-yl)-2,3-dihydro-1H-inden-2-yl)urea]", "values": [{"measurement": "mortality at 50 µg/cm2", "setting": "[1]", "value": "50 to 100", "unit": "%"}, {"measurement": "mortality at 50 µg/cm2", "setting": "[2]", "value": "50 to 100", "unit": "%"}, {"measurement": "YFM % Control (or Mortality) rating", "setting": "[3]", "value": "A (80-100)"}, {"measurement": "mortality at 200 ppm", "setting": "[4]", "value": "0 to 80", "unit": "%"}]}, {"smiles": "Cc1ccc(C(C)C)c(N2C(=O)CS/C2=N\\C(=O)NC2Cc3ccc(-c4ncn(-c5ccc(OC(F)(F)C(F)(F)F)cc5)n4)cc3C2)c1", "note": "(stereo not drawn) [F4, (Z)-1-(3-(2-Isopropyl-5-methylphenyl)-4-oxothiazolidin-2-ylidene)-3-(5-(1-(4-(perfluoroethoxy)phenyl)-1H-1,2,4-triazol-3-yl)-2,3-dihydro-1H-inden-2-yl)urea]", "values": [{"measurement": "mortality at 50 µg/cm2", "setting": "[1]", "value": "50 to 100", "unit": "%"}, {"measurement": "mortality at 50 µg/cm2", "setting": "[2]", "value": "50 to 100", "unit": "%"}, {"measurement": "YFM % Control (or Mortality) rating", "setting": "[3]", "value": "A (80-100)"}, {"measurement": "mortality at 200 ppm", "setting": "[4]", "value": "0 to 80", "unit": "%"}]}, {"smiles": "CCCc1ccc(C)cc1N1C(=O)CS/C1=N\\C(=O)NC1CCc2cc(-c3ncn(-c4ccc(OC(F)(F)F)cc4)n3)ccc2C1", "note": "(stereo not drawn) [P34, (Z)-1-(3-(5-Methyl-2-propylphenyl)-4-oxothiazolidin-2-ylidene)-3-(6-(1-(4-(trifluoromethoxy)phenyl)-1H-1,2,4-triazol-3-yl)-1,2,3,4-tetrahydronaphthalen-2-yl)urea]", "values": [{"measurement": "mortality at 50 µg/cm2", "setting": "[1]", "value": "50 to 100", "unit": "%"}, {"measurement": "mortality at 50 µg/cm2", "setting": "[2]", "value": "50 to 100", "unit": "%"}, {"measurement": "YFM % Control (or Mortality) rating", "setting": "[3]", "value": "D (No activity noticed in this bioassay)"}]}, {"smiles": "Cc1ccc(Cl)c(N2C(=O)CS/C2=N\\C(=O)NC2CCc3cc(-c4ncn(-c5ccc(OC(F)(F)F)cc5)n4)ccc3C2)c1", "note": "(stereo not drawn) [P37, (Z)-1-(3-(2-Chloro-5-methylphenyl)-4-oxothiazolidin-2-ylidene)-3-(6-(1-(4-(trifluoromethoxy)phenyl)-1H-1,2,4-triazol-3-yl)-1,2,3,4-tetrahydronaphthalen-2-yl)urea]", "values": [{"measurement": "mortality at 50 µg/cm2", "setting": "[1]", "value": "50 to 100", "unit": "%"}, {"measurement": "mortality at 50 µg/cm2", "setting": "[2]", "value": "50 to 100", "unit": "%"}, {"measurement": "YFM % Control (or Mortality) rating", "setting": "[3]", "value": "D (No activity noticed in this bioassay)"}]}, {"smiles": "COc1ccc(C)cc1N1C(=O)CS/C1=N\\C(=O)NC1CCc2cc(-c3ncn(-c4ccc(OC(F)(F)F)cc4)n3)ccc2C1", "note": "(stereo not drawn) [P38, (Z)-1-(3-(2-Methoxy-5-methylphenyl)-4-oxothiazolidin-2-ylidene)-3-(6-(1-(4-(trifluoromethoxy)phenyl)-1H-1,2,4-triazol-3-yl)-1,2,3,4-tetrahydronaphthalen-2-yl)urea]", "values": [{"measurement": "mortality at 50 µg/cm2", "setting": "[1]", "value": "50 to 100", "unit": "%"}, {"measurement": "mortality at 50 µg/cm2", "setting": "[2]", "value": "50 to 100", "unit": "%"}, {"measurement": "YFM % Control (or Mortality) rating", "setting": "[3]", "value": "A (80-100)"}]}, {"smiles": "Cc1cs/c(=N\\C(=O)NC2Cc3ccc(-c4ncn(-c5ccc(OC(F)(F)F)cc5)n4)cc3C2)n1-c1ccccc1C(C)C", "note": "(stereo not drawn) [FA1, (Z)-1-(3-(2-isopropylphenyl)-4-methylthiazol-2(3H)-ylidene)-3-(5-(1-(4-(trifluoromethoxy)phenyl)-1H-1,2,4-triazol-3-yl)-2,3-dihydro-1H-inden-2-yl)urea]", "values": [{"measurement": "mortality at 50 µg/cm2", "setting": "[1]", "value": "50 to 100", "unit": "%"}, {"measurement": "mortality at 50 µg/cm2", "setting": "[2]", "value": "50 to 100", "unit": "%"}, {"measurement": "YFM % Control (or Mortality) rating", "setting": "[3]", "value": "A (80-100)"}]}, {"smiles": "CC(C)c1cc(F)ccc1NC(=S)NC(=O)NC1Cc2ccc(-c3ncn(-c4ccc(OC(F)(F)F)cc4)n3)cc2C1", "note": "(stereo not drawn) [P2, 1-[(4-Fluoro-2-isopropyl-phenyl)carbamothioyl]-3-[5-[1-[4-(trifluoromethoxy)phenyl]-1,2,4-triazol-3-yl]indan-2-yl]urea]", "values": [{"measurement": "mortality at 50 µg/cm2", "setting": "[1]", "value": "50 to 100", "unit": "%"}, {"measurement": "mortality at 50 µg/cm2", "setting": "[2]", "value": "50 to 100", "unit": "%"}, {"measurement": "YFM % Control (or Mortality) rating", "setting": "[3]", "value": "A (80-100)"}]}]}
